According to US20230017045A1, “PYRIDINE AND PYRIMIDINE CARBOXYLATE HERBICIDES AND METHODS OF USE THEREOF” (Dow AgroSciences LLC, priority 2017, published 2023):

System: test plant species
Assay: Post-emergent herbicidal activity test (greenhouse, foliar spray, visual growth reduction)
Type: in vivo
Settings: post-emergence, 336 h, ECHCG: barnyardgrass (Echinochloa crus-galli), 140 g ai/ha, 14 days after application, read-out: Visual Growth Reduction (%) 14 Days After Application, ECHCG
How it was run: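 Plants grown in greenhouse (15 h photoperiod, 23-29° C day/22-28° C night) to first or second true leaf stage were sprayed overhead with compound in acetone/water/isopropanol/DMSO/crop oil/X-77 carrier at 187 L/ha. Injury was scored visually after 14 d on a 0-100% scale versus solvent-blank and untreated controls.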

Structure (SMILES) | pest or weed control at 140 g/ha
COC(=O)c1nc(-c2cc(SC)c(C(F)(F)F)cc2Cl)c(F)cc1Cl [F332, Methyl 3-chloro-6-(2-chloro-5-(methylthio)-4-(trifluoromethyl)phenyl) 5-fluoropicolinate] | 0 to 29%
COC(=O)c1nc(-c2ccc(C(F)(F)F)c(Cl)c2)c(F)cc1Cl [F305, Methyl 3-chloro-6-(3-chloro-4-(trifluoromethyl)phenyl)-5-fluoropicolinate] | 0 to 29%
COC(=O)c1nc(-c2ccc(Cl)c(C(F)F)c2F)ccc1Cl [F273, Methyl 3-chloro-6-(4-chloro-3-(difluoromethyl)-2-fluorophenyl) picolinate] | 0 to 29%

Same assay, conditions: post-emergence, 336 h, IPOHE: ivy-leaf morning glory (Ipomoea hederacea), 140 g ai/ha, 14 days after application, read-out: Visual Growth Reduction (%) 14 Days After Application, IPOHE

Structure (SMILES) | pest or weed control at 140 g/ha
COC(=O)c1nc(-c2cc(SC)c(C(F)(F)F)cc2Cl)c(F)cc1Cl [F332, Methyl 3-chloro-6-(2-chloro-5-(methylthio)-4-(trifluoromethyl)phenyl) 5-fluoropicolinate] | 0 to 29%
COC(=O)c1nc(-c2ccc(C(F)(F)F)c(Cl)c2)c(F)cc1Cl [F305, Methyl 3-chloro-6-(3-chloro-4-(trifluoromethyl)phenyl)-5-fluoropicolinate] | 95 to 100%
COC(=O)c1nc(-c2ccc(Cl)c(C(F)F)c2F)ccc1Cl [F273, Methyl 3-chloro-6-(4-chloro-3-(difluoromethyl)-2-fluorophenyl) picolinate] | 75 to 84%

Same assay, conditions: post-emergence, 336 h, KCHSC: kochia (Bassia scoparia), 140 g ai/ha, 14 days after application, read-out: Visual Growth Reduction (%) 14 Days After Application, KCHSC

Structure (SMILES) | pest or weed control at 140 g/ha
COC(=O)c1nc(-c2cc(SC)c(C(F)(F)F)cc2Cl)c(F)cc1Cl [F332, Methyl 3-chloro-6-(2-chloro-5-(methylthio)-4-(trifluoromethyl)phenyl) 5-fluoropicolinate] | 30 to 44%
COC(=O)c1nc(-c2ccc(C(F)(F)F)c(Cl)c2)c(F)cc1Cl [F305, Methyl 3-chloro-6-(3-chloro-4-(trifluoromethyl)phenyl)-5-fluoropicolinate] | 0 to 29%
COC(=O)c1nc(-c2ccc(Cl)c(C(F)F)c2F)ccc1Cl [F273, Methyl 3-chloro-6-(4-chloro-3-(difluoromethyl)-2-fluorophenyl) picolinate] | 0 to 29%

Same assay, conditions: post-emergence, 336 h, ORYSA: rice (Oryza sativa), 140 g ai/ha, 14 days after application, read-out: Visual Growth Reduction (%) 14 Days After Application, ORYSA

Structure (SMILES) | pest or weed control at 140 g/ha
COC(=O)c1nc(-c2cc(SC)c(C(F)(F)F)cc2Cl)c(F)cc1Cl [F332, Methyl 3-chloro-6-(2-chloro-5-(methylthio)-4-(trifluoromethyl)phenyl) 5-fluoropicolinate] | 0 to 29%
COC(=O)c1nc(-c2ccc(C(F)(F)F)c(Cl)c2)c(F)cc1Cl [F305, Methyl 3-chloro-6-(3-chloro-4-(trifluoromethyl)phenyl)-5-fluoropicolinate] | 0 to 29%
COC(=O)c1nc(-c2ccc(Cl)c(C(F)F)c2F)ccc1Cl [F273, Methyl 3-chloro-6-(4-chloro-3-(difluoromethyl)-2-fluorophenyl) picolinate] | 0 to 29%

Same assay, conditions: post-emergence, 336 h, SETFA: giant foxtail (Setaria faberi), 140 g ai/ha, 14 days after application, read-out: Visual Growth Reduction (%) 14 Days After Application, SETFA

Structure (SMILES) | pest or weed control at 140 g/ha
COC(=O)c1nc(-c2cc(SC)c(C(F)(F)F)cc2Cl)c(F)cc1Cl [F332, Methyl 3-chloro-6-(2-chloro-5-(methylthio)-4-(trifluoromethyl)phenyl) 5-fluoropicolinate] | 0 to 29%
COC(=O)c1nc(-c2ccc(C(F)(F)F)c(Cl)c2)c(F)cc1Cl [F305, Methyl 3-chloro-6-(3-chloro-4-(trifluoromethyl)phenyl)-5-fluoropicolinate] | 0 to 29%
COC(=O)c1nc(-c2ccc(Cl)c(C(F)F)c2F)ccc1Cl [F273, Methyl 3-chloro-6-(4-chloro-3-(difluoromethyl)-2-fluorophenyl) picolinate] | 0 to 29%

Same assay, conditions: post-emergence, 336 h, SORVU: grain sorghum (Sorghum vulgare), 140 g ai/ha, 14 days after application, read-out: Visual Growth Reduction (%) 14 Days After Application, SORVU

Structure (SMILES) | pest or weed control at 140 g/ha
COC(=O)c1nc(-c2cc(SC)c(C(F)(F)F)cc2Cl)c(F)cc1Cl [F332, Methyl 3-chloro-6-(2-chloro-5-(methylthio)-4-(trifluoromethyl)phenyl) 5-fluoropicolinate] | 0 to 29%
COC(=O)c1nc(-c2ccc(C(F)(F)F)c(Cl)c2)c(F)cc1Cl [F305, Methyl 3-chloro-6-(3-chloro-4-(trifluoromethyl)phenyl)-5-fluoropicolinate] | 75 to 84%
COC(=O)c1nc(-c2ccc(Cl)c(C(F)F)c2F)ccc1Cl [F273, Methyl 3-chloro-6-(4-chloro-3-(difluoromethyl)-2-fluorophenyl) picolinate] | 75 to 84%

Same assay, conditions: post-emergence, 336 h, STEME: common chickweed (Stellaria media), 140 g ai/ha, 14 days after application, read-out: Visual Growth Reduction (%) 14 Days After Application, STEME

Structure (SMILES) | pest or weed control at 140 g/ha
COC(=O)c1nc(-c2cc(SC)c(C(F)(F)F)cc2Cl)c(F)cc1Cl [F332, Methyl 3-chloro-6-(2-chloro-5-(methylthio)-4-(trifluoromethyl)phenyl) 5-fluoropicolinate] | 0 to 29%
COC(=O)c1nc(-c2ccc(C(F)(F)F)c(Cl)c2)c(F)cc1Cl [F305, Methyl 3-chloro-6-(3-chloro-4-(trifluoromethyl)phenyl)-5-fluoropicolinate] | 0 to 29%
COC(=O)c1nc(-c2ccc(Cl)c(C(F)F)c2F)ccc1Cl [F273, Methyl 3-chloro-6-(4-chloro-3-(difluoromethyl)-2-fluorophenyl) picolinate] | 0 to 29%

Same assay, conditions: post-emergence, 336 h, TRZAS: wheat, spring (Triticum aestivum), 140 g ai/ha, 14 days after application, read-out: Visual Growth Reduction (%) 14 Days After Application, TRZAS

Structure (SMILES) | pest or weed control at 140 g/ha
COC(=O)c1nc(-c2cc(SC)c(C(F)(F)F)cc2Cl)c(F)cc1Cl [F332, Methyl 3-chloro-6-(2-chloro-5-(methylthio)-4-(trifluoromethyl)phenyl) 5-fluoropicolinate] | 0 to 29%
COC(=O)c1nc(-c2ccc(C(F)(F)F)c(Cl)c2)c(F)cc1Cl [F305, Methyl 3-chloro-6-(3-chloro-4-(trifluoromethyl)phenyl)-5-fluoropicolinate] | 0 to 29%
COC(=O)c1nc(-c2ccc(Cl)c(C(F)F)c2F)ccc1Cl [F273, Methyl 3-chloro-6-(4-chloro-3-(difluoromethyl)-2-fluorophenyl) picolinate] | 0 to 29%

Same assay, conditions: post-emergence, 336 h, blackgrass (Alopecurus myosuroides), 14 Days After Application, 140 g ai/ha, read-out: Visual Growth Reduction (%) ALOMY

Structure (SMILES) | pest or weed control at 140 g/ha
COC(=O)c1nc(-c2cc(SC)c(C(F)(F)F)cc2Cl)c(F)cc1Cl [F332, Methyl 3-chloro-6-(2-chloro-5-(methylthio)-4-(trifluoromethyl)phenyl) 5-fluoropicolinate] | 0 to 29%
COC(=O)c1nc(-c2ccc(C(F)(F)F)c(Cl)c2)c(F)cc1Cl [F305, Methyl 3-chloro-6-(3-chloro-4-(trifluoromethyl)phenyl)-5-fluoropicolinate] | 0 to 29%
COC(=O)c1nc(-c2ccc(Cl)c(C(F)F)c2F)ccc1Cl [F273, Methyl 3-chloro-6-(4-chloro-3-(difluoromethyl)-2-fluorophenyl) picolinate] | 0 to 29%

Same assay, conditions: post-emergence, 336 h, canada thistle (Cirsium arvense), 14 Days After Application, 140 g ai/ha, read-out: Visual Growth Reduction (%) CIRAR

Structure (SMILES) | pest or weed control at 140 g/ha
COC(=O)c1nc(-c2ccc(C(F)(F)F)c(Cl)c2)c(F)cc1Cl [F305, Methyl 3-chloro-6-(3-chloro-4-(trifluoromethyl)phenyl)-5-fluoropicolinate] | 0 to 29%
COC(=O)c1nc(-c2ccc(Cl)c(C(F)F)c2F)ccc1Cl [F273, Methyl 3-chloro-6-(4-chloro-3-(difluoromethyl)-2-fluorophenyl) picolinate] | 30 to 44%

Same assay, conditions: post-emergence, 336 h, crabgrass (Digitaria sanguinalis), 14 Days After Application, 140 g ai/ha, read-out: Visual Growth Reduction (%) DIGSA

Structure (SMILES) | pest or weed control at 140 g/ha
COC(=O)c1nc(-c2cc(SC)c(C(F)(F)F)cc2Cl)c(F)cc1Cl [F332, Methyl 3-chloro-6-(2-chloro-5-(methylthio)-4-(trifluoromethyl)phenyl) 5-fluoropicolinate] | 0 to 29%
COC(=O)c1nc(-c2ccc(C(F)(F)F)c(Cl)c2)c(F)cc1Cl [F305, Methyl 3-chloro-6-(3-chloro-4-(trifluoromethyl)phenyl)-5-fluoropicolinate] | 85 to 94%
COC(=O)c1nc(-c2ccc(Cl)c(C(F)F)c2F)ccc1Cl [F273, Methyl 3-chloro-6-(4-chloro-3-(difluoromethyl)-2-fluorophenyl) picolinate] | 60 to 74%

Same assay, conditions: post-emergence, 336 h, lambsquarters (Chenopodium album), 14 Days After Application, 140 g ai/ha, read-out: Visual Growth Reduction (%) CHEAL

Structure (SMILES) | pest or weed control at 140 g/ha
COC(=O)c1nc(-c2cc(SC)c(C(F)(F)F)cc2Cl)c(F)cc1Cl [F332, Methyl 3-chloro-6-(2-chloro-5-(methylthio)-4-(trifluoromethyl)phenyl) 5-fluoropicolinate] | 0 to 29%
COC(=O)c1nc(-c2ccc(C(F)(F)F)c(Cl)c2)c(F)cc1Cl [F305, Methyl 3-chloro-6-(3-chloro-4-(trifluoromethyl)phenyl)-5-fluoropicolinate] | 45 to 59%
COC(=O)c1nc(-c2ccc(Cl)c(C(F)F)c2F)ccc1Cl [F273, Methyl 3-chloro-6-(4-chloro-3-(difluoromethyl)-2-fluorophenyl) picolinate] | 75 to 84%

Same assay, conditions: post-emergence, 336 h, redroot pigweed (Amaranthus retroflexus), 14 Days After Application, 140 g ai/ha, read-out: Visual Growth Reduction (%) AMARE

Structure (SMILES) | pest or weed control at 140 g/ha
COC(=O)c1nc(-c2cc(SC)c(C(F)(F)F)cc2Cl)c(F)cc1Cl [F332, Methyl 3-chloro-6-(2-chloro-5-(methylthio)-4-(trifluoromethyl)phenyl) 5-fluoropicolinate] | 0 to 29%
COC(=O)c1nc(-c2ccc(C(F)(F)F)c(Cl)c2)c(F)cc1Cl [F305, Methyl 3-chloro-6-(3-chloro-4-(trifluoromethyl)phenyl)-5-fluoropicolinate] | 30 to 44%
COC(=O)c1nc(-c2ccc(Cl)c(C(F)F)c2F)ccc1Cl [F273, Methyl 3-chloro-6-(4-chloro-3-(difluoromethyl)-2-fluorophenyl) picolinate] | 0 to 29%

Same assay, conditions: post-emergence, 336 h, wild oat (Avena fatua), 14 Days After Application, 140 g ai/ha, read-out: Visual Growth Reduction (%) AVEFA

Structure (SMILES) | pest or weed control at 140 g/ha
COC(=O)c1nc(-c2cc(SC)c(C(F)(F)F)cc2Cl)c(F)cc1Cl [F332, Methyl 3-chloro-6-(2-chloro-5-(methylthio)-4-(trifluoromethyl)phenyl) 5-fluoropicolinate] | 0 to 29%
COC(=O)c1nc(-c2ccc(C(F)(F)F)c(Cl)c2)c(F)cc1Cl [F305, Methyl 3-chloro-6-(3-chloro-4-(trifluoromethyl)phenyl)-5-fluoropicolinate] | 0 to 29%
COC(=O)c1nc(-c2ccc(Cl)c(C(F)F)c2F)ccc1Cl [F273, Methyl 3-chloro-6-(4-chloro-3-(difluoromethyl)-2-fluorophenyl) picolinate] | 0 to 29%

Same assay, conditions: post-emergence, 336 h, yellow nutsedge (Cyperus esculentus), 14 Days After Application, 140 g ai/ha, read-out: Visual Growth Reduction (%) CYPES

Structure (SMILES) | pest or weed control at 140 g/ha
COC(=O)c1nc(-c2cc(SC)c(C(F)(F)F)cc2Cl)c(F)cc1Cl [F332, Methyl 3-chloro-6-(2-chloro-5-(methylthio)-4-(trifluoromethyl)phenyl) 5-fluoropicolinate] | 0 to 29%
COC(=O)c1nc(-c2ccc(C(F)(F)F)c(Cl)c2)c(F)cc1Cl [F305, Methyl 3-chloro-6-(3-chloro-4-(trifluoromethyl)phenyl)-5-fluoropicolinate] | 45 to 59%
COC(=O)c1nc(-c2ccc(Cl)c(C(F)F)c2F)ccc1Cl [F273, Methyl 3-chloro-6-(4-chloro-3-(difluoromethyl)-2-fluorophenyl) picolinate] | 0 to 29%
